Columns and labels:
Type in all cases: functional, cell-based
HepG2 = experiment: Antiproliferative activity against human HepG2 cells after 24 hrs by MTT assay; conditions: HepG2, 24 h
Jurkat = experiment: Antiproliferative activity against human Jurkat cells after 24 hrs by MTT assay
HEK293 = experiment: Antiproliferative activity against HEK293 cells after 24 hrs by MTT assay; conditions: Homo sapiens, HEK293, 24 h
SH-SY5Y = experiment: Antiproliferative activity against human SH-SY5Y cells after 24 hrs by MTT assay

`Cc1[nH]c2ccc(Br)cc2c1CC(N)c1cc(Cl)cc(Cl)c1` (configuration not stated) was tested, and the IC50 (HepG2) was 14.8 µM, the IC50 (Jurkat) was 9.55 µM and the IC50 (HEK293) was 30.9 µM. It also gave an IC50 (SH-SY5Y) of 27.6 µM.
Work on `Cc1[nH]c2ccc(F)cc2c1CCN` yielded an IC50 (HepG2) of over 100 µM, an IC50 (Jurkat) of over 100 µM and an IC50 (HEK293) of over 100 µM. It also gave an IC50 (SH-SY5Y) of over 100 µM.
`Cc1[nH]c2ccc(F)cc2c1CC(NCc1ccccc1)c1ccccc1` (configuration not stated) showed an IC50 (HepG2) of 19.4 µM, an IC50 (Jurkat) of 13.8 µM and an IC50 (HEK293) of 65.2 µM. For the same molecule, the IC50 (SH-SY5Y) was 20.2 µM.
`Cc1[nH]c2ccc(Br)cc2c1CC(N)c1ccc(Cl)cc1` (configuration not stated) showed an IC50 (HepG2) of 8.43 µM, an IC50 (Jurkat) of 7.5 µM and an IC50 (HEK293) of 18.4 µM. The IC50 (SH-SY5Y) was 18.6 µM.
For `COc1cc(CNCCc2c(C)[nH]c3ccc(F)cc23)cc2c1OCO2`, the IC50 (HepG2) was 16.4 µM, the IC50 (Jurkat) was 13.9 µM and the IC50 (HEK293) was 17.7 µM. For the same molecule, the IC50 (SH-SY5Y) was 12.5 µM.
In the case of `COc1ccc(C(N)Cc2c(C)[nH]c3ccc(Br)cc23)cc1` (configuration not stated), the IC50 (HepG2) is reported as 7.12 µM, the IC50 (Jurkat) is reported as 8.14 µM and the IC50 (HEK293) is reported as 18.7 µM. For the same molecule, the IC50 (SH-SY5Y) was 17.8 µM.
Work on `Cc1[nH]c2ccc(Br)cc2c1C[C@H](N)c1ccccc1` yielded an IC50 (HepG2) of 10.8 µM, an IC50 (Jurkat) of 13.8 µM and an IC50 (HEK293) of 34.8 µM. It also gave an IC50 (SH-SY5Y) of 25.2 µM.
In the case of `Cc1c(CC(N)c2ccccc2)c2cc(F)ccc2n1Cc1ccccc1` (configuration not stated), the IC50 (HepG2) is reported as 13.1 µM, the IC50 (Jurkat) is reported as 14 µM and the IC50 (HEK293) is reported as 16.7 µM. The IC50 (SH-SY5Y) was 15 µM.
`Cc1c(CC(N)c2ccccc2)c2cc(-c3ccccc3)ccc2n1Cc1ccccc1` (configuration not stated) showed an IC50 (HepG2) of 1.46 µM, an IC50 (Jurkat) of 1.9 µM and an IC50 (HEK293) of 16.3 µM. The IC50 (SH-SY5Y) was 11.9 µM.
`Cc1[nH]c2ccc(F)cc2c1CCNCc1ccccc1` gave an IC50 (HepG2) of 14.7 µM, an IC50 (Jurkat) of 12.9 µM and an IC50 (HEK293) of 21.4 µM. The IC50 (SH-SY5Y) was 25 µM.
For `Cc1ccc2[nH]c(C)c(CC(N)c3ccccc3)c2c1` (configuration not stated), the IC50 (HepG2) was 17.1 µM, the IC50 (Jurkat) was 13.2 µM and the IC50 (HEK293) was 94 µM. It also gave an IC50 (SH-SY5Y) of 46.1 µM.
Molecule `COc1cc(CNCCc2c(C)[nH]c3ccc(-c4ccccc4)cc23)cc2c1OCO2` has an IC50 (HepG2) of 1.37 µM, an IC50 (Jurkat) of 1.51 µM and an IC50 (HEK293) of 8.27 µM. It also gave an IC50 (SH-SY5Y) of 9.07 µM.
With `Cc1[nH]c2ccc(-c3ccccc3)cc2c1CCNCc1ccccc1` the IC50 (HepG2) was 1.49 µM, the IC50 (Jurkat) was 1.45 µM and the IC50 (HEK293) was 16.6 µM. For the same molecule, the IC50 (SH-SY5Y) was 5.71 µM.
For `Cc1[nH]c2ccc(F)cc2c1CC(N)c1ccccc1` (configuration not stated), the IC50 (HepG2) was 15.8 µM, the IC50 (Jurkat) was 15.2 µM and the IC50 (HEK293) was 73.5 µM. For the same molecule, the IC50 (SH-SY5Y) was 59.1 µM.
`Cc1ccc(C(N)Cc2c(C)[nH]c3ccc(Br)cc23)cc1` (configuration not stated) gave an IC50 (HepG2) of 7.76 µM, an IC50 (Jurkat) of 9.86 µM and an IC50 (HEK293) of 23.2 µM. The IC50 (SH-SY5Y) was 21.9 µM.
`Cc1[nH]c2ccc(Br)cc2c1CC(N)c1ccc(F)cc1` (configuration not stated) gave an IC50 (HepG2) of 9.58 µM, an IC50 (Jurkat) of 11.8 µM and an IC50 (HEK293) of 23.2 µM. It also gave an IC50 (SH-SY5Y) of 22.9 µM.
Molecule `Cc1[nH]c2ccc(-c3ccccc3)cc2c1CC(N)c1ccccc1` (configuration not stated) has an IC50 (HepG2) of 1.82 µM, an IC50 (Jurkat) of 1.58 µM and an IC50 (HEK293) of 10.1 µM. The IC50 (SH-SY5Y) was 12.5 µM.
For `Cc1c(CCN)c2cc(F)ccc2n1Cc1ccccc1`, the IC50 (HepG2) was 19.7 µM, the IC50 (Jurkat) was 13.5 µM and the IC50 (HEK293) was 17.2 µM. It also gave an IC50 (SH-SY5Y) of 13.1 µM.
`Cc1[nH]c2ccccc2c1CC(N)c1ccccc1` (configuration not stated) gave an IC50 (HepG2) of 16.7 µM, an IC50 (Jurkat) of 15.5 µM and an IC50 (HEK293) of 109 µM. The IC50 (SH-SY5Y) was 117 µM.
For `Cc1[nH]c2ccc(-c3ccccc3)cc2c1CC(NCc1ccccc1)c1ccccc1` (configuration not stated), the IC50 (HepG2) was 45.5 µM, the IC50 (Jurkat) was 8.88 µM and the IC50 (HEK293) was 20.1 µM. For the same molecule, the IC50 (SH-SY5Y) was 20.1 µM.
Work on `Cc1c(CCN)c2cc(-c3ccccc3)ccc2n1Cc1ccccc1` yielded an IC50 (HepG2) of 1.9 µM, an IC50 (Jurkat) of 3.82 µM and an IC50 (HEK293) of 15.4 µM. It also gave an IC50 (SH-SY5Y) of 12.2 µM.
`Cc1[nH]c2ccc(Br)cc2c1CC(N)c1ccccc1` (configuration not stated) gave an IC50 (HepG2) of 14 µM, an IC50 (Jurkat) of 20.4 µM and an IC50 (HEK293) of 39.4 µM. The IC50 (SH-SY5Y) was 42.7 µM.
Molecule `COc1cc(CNC(Cc2c(C)[nH]c3ccc(F)cc23)c2ccccc2)cc2c1OCO2` (configuration not stated) has an IC50 (HepG2) of 15.6 µM, an IC50 (Jurkat) of 14.5 µM and an IC50 (HEK293) of 54.9 µM. It also gave an IC50 (SH-SY5Y) of 20 µM.
